In patent US20210154190A1, “SHP2 INHIBITOR COMPOSITIONS AND METHODS FOR TREATING CANCER” (Revolution Medicines, Inc., priority 2018, published 2021):
Positions count from the first letter of the chain named. Where “and” joins values, the source holds several entries; their conditions need not be identical. Equal entries are not always repeated. Where two headings read alike, the source gives them in different places.

Experiments:
Assay type in all cases: biochemical
human SHP2-FL D61G = target: T1, human SHP2-FL D61G (Homo sapiens, UniProt Q06124, D61G); test: SHP2 allosteric inhibition assay (DiFMUP), D61G; settings: for IC50: SHP2 D61G
T1 sequence (Q06124 1-593 D61G): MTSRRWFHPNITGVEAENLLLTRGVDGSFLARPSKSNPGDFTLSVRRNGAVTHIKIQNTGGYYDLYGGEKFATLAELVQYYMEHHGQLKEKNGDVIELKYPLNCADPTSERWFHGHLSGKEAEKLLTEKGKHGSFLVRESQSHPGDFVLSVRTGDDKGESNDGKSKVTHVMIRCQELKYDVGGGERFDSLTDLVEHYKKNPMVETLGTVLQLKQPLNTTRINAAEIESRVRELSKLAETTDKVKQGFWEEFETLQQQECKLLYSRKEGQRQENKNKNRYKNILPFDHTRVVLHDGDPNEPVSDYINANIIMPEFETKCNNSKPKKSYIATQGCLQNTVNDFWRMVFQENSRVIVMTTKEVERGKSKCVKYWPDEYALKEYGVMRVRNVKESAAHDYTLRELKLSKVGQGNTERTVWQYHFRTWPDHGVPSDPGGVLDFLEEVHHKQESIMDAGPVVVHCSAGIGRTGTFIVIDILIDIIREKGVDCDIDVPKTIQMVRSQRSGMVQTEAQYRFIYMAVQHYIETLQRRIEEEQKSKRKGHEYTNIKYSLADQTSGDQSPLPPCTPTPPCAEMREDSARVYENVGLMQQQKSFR
Procedure: (§1) Full-length SHP2 is allosterically activated through binding of bis-tyrosyl-phorphorylated peptides to its Src Homology 2 (SH2) domains. The latter activation step leads to the release of the auto-inhibitory interface of SHP2, which in turn renders the SHP2 protein tyrosine phosphatase (PTP) active and available for substrate recognition and reaction catalysis. The catalytic activity of SHP2 was monitored using the surrogate substrate DiFMUP in a prompt fluorescence assay format.
(§2) […] […] 50 μl stop solution (0.1 mM sodium pervanadate) was added to each well, the plate was shaken briefly to mix, and read in endpoint mode on a SpectraMax M5 plate reader (Molecular Devices) using excitation and emission wavelengths of 340 nm and 450 nm. Data was imported into GraphPad Prism. Plots of fluorescence intensity vs. log Molar [compound] were created and modeled with a 3-parameter sigmoidal concentration response equation in order to estimate IC50.
(§3) Reactions were then allowed to proceed for 30 minutes and stopped by the addition of a phosphatase inhibitor, sodium pervanadate. De-phosphorylation of DiFMUP results in production of a fluorescent product. Product fluorescence was determined and plotted as a function of compound concentration in order to determine the IC50 for each compound on each mutant using a four parameter sigmoidal dose response function in Prism (GraphPad).
(§4) NsCs mimics the role of the cytosolic domain of a protein tyrosine kinase in this model system.

human SHP2-FL P491S = target: T2, human SHP2-FL P491S (Homo sapiens, UniProt Q06124, P491S); test: SHP2 allosteric inhibition assay (DiFMUP), P491S
T2 sequence (Q06124 1-593 P491S): T1 sequence (Q06124 1-593 D61G) with G61D, P491S
Procedure: as §1, §2, §3, §4

human SHP2-FL wild type = target: T3, human SHP2-FL wild type (Homo sapiens, UniProt Q06124); test: SHP2 allosteric inhibition assay (DiFMUP), wild type
T3 sequence (Q06124 1-593): T1 sequence (Q06124 1-593 D61G) with G61D
Procedure: as §1, §2, §3, §4

Structure (SMILES) | IC50 (human SHP2-FL D61G; 0.5 μM NsCs peptide (Activated), read-out: IC50) | IC50 (human SHP2-FL D61G; 0.5 μM NsCs peptide (Activated), read-out: pIC50 (converted)) | IC50 (human SHP2-FL D61G; No Peptide Control (Non-Activated), read-out: IC50) | IC50 (human SHP2-FL D61G; No Peptide Control (Non-Activated), read-out: pIC50 (converted)) | IC50 (human SHP2-FL P491S; IC50 (nM), SHP2 P491S 0.5 μM NsCs peptide (Activated), human SHP2-FL P491S, 0.5 μM NsCs peptide (activated)) | IC50 (human SHP2-FL P491S; human SHP2-FL P491S alone, no peptide (non-activated), read-out: IC50 (nM), SHP2 P491S No Peptide Control (Non-Activated)) | IC50 (human SHP2-FL P491S; human SHP2-FL P491S alone, no peptide (non-activated), read-out: pIC50, SHP2 P491S No Peptide Control (Non-Activated) (converted)) | IC50 (human SHP2-FL P491S; pIC50, SHP2 P491S 0.5 μM NsCs peptide (Activated), human SHP2-FL P491S, 0.5 μM NsCs peptide (activated)) | IC50 (human SHP2-FL wild type; Wild-type SHP2, 0.5 μM NsCs peptide (Activated), read-out: IC50) | IC50 (human SHP2-FL wild type; Wild-type SHP2, 0.5 μM NsCs peptide (Activated), read-out: pIC50 (converted)) | IC50 (human SHP2-FL wild type; Wild-type SHP2, No Peptide Control (Non-Activated), read-out: IC50) | IC50 (human SHP2-FL wild type; Wild-type SHP2, No Peptide Control (Non-Activated), read-out: pIC50 (converted)) | Biochemical sensitivity (human SHP2-FL D61G; Variant D61G) | Biochemical sensitivity (human SHP2-FL P491S; Variant P491S) | Biochemical sensitivity (human SHP2-FL wild type; Variant WT)
Nc1nc(N2CCC3(CCC[C@H]3N)CC2)cnc1Sc1ccnc(Cl)c1Cl [Compound 1] | 185 nM and 219 nM and 198 nM and 191 nM | 186 nM and 219 nM and 200 nM and 191 nM | 1.85 nM and 2.45 nM and 1.6 nM and 1.81 nM | 1.86 nM and 2.45 nM and 1.58 nM and 1.82 nM | > 10000 nM and 10600 nM and 7670 nM | 258 nM and 274 nM and 253 nM and 282 nM | 257 nM and 275 nM and 251 nM and 282 nM | > 10000 nM and 10700 nM and 7590 nM | 2.62 nM and 2.69 nM and 2.12 nM and 2.37 nM | 2.63 nM and 2.69 nM and 2.14 nM and 2.34 nM | 2.01 nM and 2.43 nM and 1.36 nM and 2.24 nM | 2 nM and 2.45 nM and 1.35 nM and 2.24 nM |  |  | 
Cc1nc(N2CCC3(CC2)CO[C@@H](C)[C@H]3N)c(CO)nc1-c1cccc(Cl)c1Cl [Compound B] |  |  |  |  |  |  |  |  |  |  |  |  | yes (Sensitive if IC50 < 2000 nM) | no (Sensitive if IC50 < 2000 nM) | yes (Sensitive if IC50 < 2000 nM)
